Data taken from patent US20070275944A1, “Antioxidants and methods of their use” (The Board of Trustees Operating Michigan State University, priority 2006, published 2007).

Test system: mouse brain, dopaminergic neurons
Experiment: MRI imaging of mouse brain after injection of tracer
Type: in vivo
Settings: mice, MRI images 48 hours after administration
Description: The central figure is a chimera directly comparing the left hemisphere of the control with the right hemisphere of the TP-TEMPO treated. In this central image the “Y” shaped region (1) is where the dopaminergic neurons are found.
With its dependence on the more biologically variable parameters of proton density, longitudinal relaxation time (T1), and transverse relaxation time (T2), variable image contrast can be achieved by using different pulse sequences and by changing the imaging parameters. Signal intensities on T1, T2, and proton density-weighted images relate to specific tissue characteristics. Moreover, with MRI's multi-planar capability, the imaging plane can be optimized for the anatomic area being studied, and the relationship of lesions to eloquent areas of the brain can be defined more accurately. Since T2-weighted images are most sensitive for detecting brain pathology, patients with suspected intracranial disease are typically screened using the T2-weighted regime. However, it has proven difficult to apply MRI to Parkinson's disease, as the dompaminergic neurons have the same MRI characteristics as the surrounding tissues, so that the Parkinson's lesions are invisible using conventional MRI and can only be detected using histology post-mortem. […]

## CN1CC=C(C2CC(C)(C)N(O)C(C)(C)C2)CC1 [TP-TEMPO, 2,2,6,6-tetramethyl-4-(1-methyl-1,2,3,6-tetrahydropyridin-4-yl)piperidin-1-oxyl]
  migration of probe to the dopaminergic neurons: preferentially migrated to the dopaminergic neurons
  partitioning of probe into the brain: partitioned preferentially into the brain
